In ChEMBL document CHEMBL5465560, “Selectivity Literature for EUbOPEN Chemogenomic Library” (2024) one finds % of control, % of activity and % of inhibition data, which are given here for 9 compounds.

Test [1] has as its target High affinity nerve growth factor receptor (Homo sapiens, UniProt P04629). To be noted: at 10 µM.
For test [2], the target named is T1, Cyclin-dependent kinase-like 5 (Homo sapiens) (UniProt O76039).
T1 sequence (whole entry): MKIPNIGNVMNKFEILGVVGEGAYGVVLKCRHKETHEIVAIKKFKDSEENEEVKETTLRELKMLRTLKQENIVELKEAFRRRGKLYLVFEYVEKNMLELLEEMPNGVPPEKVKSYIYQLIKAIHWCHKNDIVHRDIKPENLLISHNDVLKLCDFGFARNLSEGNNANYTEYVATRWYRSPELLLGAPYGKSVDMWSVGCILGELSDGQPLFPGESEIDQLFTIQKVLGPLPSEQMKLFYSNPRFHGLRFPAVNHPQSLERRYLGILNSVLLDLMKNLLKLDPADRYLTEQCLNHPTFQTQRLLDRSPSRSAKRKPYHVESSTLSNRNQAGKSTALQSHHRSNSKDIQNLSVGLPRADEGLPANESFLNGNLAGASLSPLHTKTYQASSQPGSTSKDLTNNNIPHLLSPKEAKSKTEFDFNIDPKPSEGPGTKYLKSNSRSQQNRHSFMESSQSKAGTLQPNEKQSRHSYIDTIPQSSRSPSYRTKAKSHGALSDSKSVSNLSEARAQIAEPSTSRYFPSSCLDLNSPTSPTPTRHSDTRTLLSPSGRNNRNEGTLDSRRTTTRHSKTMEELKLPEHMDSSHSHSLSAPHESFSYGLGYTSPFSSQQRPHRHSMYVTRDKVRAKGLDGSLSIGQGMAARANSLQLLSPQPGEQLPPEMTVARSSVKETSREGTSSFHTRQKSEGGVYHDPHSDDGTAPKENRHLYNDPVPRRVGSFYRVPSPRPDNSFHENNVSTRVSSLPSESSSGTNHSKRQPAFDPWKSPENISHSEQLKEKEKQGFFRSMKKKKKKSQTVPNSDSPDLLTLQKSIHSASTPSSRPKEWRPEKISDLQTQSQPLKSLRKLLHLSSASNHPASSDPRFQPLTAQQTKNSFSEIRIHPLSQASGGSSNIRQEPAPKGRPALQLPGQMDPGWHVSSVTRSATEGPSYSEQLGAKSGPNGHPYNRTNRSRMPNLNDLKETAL
Put plainly: Selectivity interaction (Ambit KINOMEscan and KiNATiv profiling in Jurkat cells) EUB0000090b CDKL5. The settings on record: at 1 µM. The class given is cell-based.

In test [3] the target is Rho-associated protein kinase 1 (Homo sapiens) (UniProt Q13464). In words: Selectivity interaction (KinomeScan (DiscoverX)) EUB0000655a ROCK1. To be noted: at 10 µM.
For test [4], the target named is Polycomb protein SUZ12 (Homo sapiens) (UniProt Q15022). Put plainly: Selectivity interaction (Methyltransferase screen (radiometric assays, panel of 8 PRMTs, 21 protein lysine methyltransferases, 3 DNA methyltransferases, and one RNA methyltransferase)) EUB0000271b SUZ12.
Sequence of Polycomb protein SUZ12 (Homo sapiens) (Q15022 whole entry): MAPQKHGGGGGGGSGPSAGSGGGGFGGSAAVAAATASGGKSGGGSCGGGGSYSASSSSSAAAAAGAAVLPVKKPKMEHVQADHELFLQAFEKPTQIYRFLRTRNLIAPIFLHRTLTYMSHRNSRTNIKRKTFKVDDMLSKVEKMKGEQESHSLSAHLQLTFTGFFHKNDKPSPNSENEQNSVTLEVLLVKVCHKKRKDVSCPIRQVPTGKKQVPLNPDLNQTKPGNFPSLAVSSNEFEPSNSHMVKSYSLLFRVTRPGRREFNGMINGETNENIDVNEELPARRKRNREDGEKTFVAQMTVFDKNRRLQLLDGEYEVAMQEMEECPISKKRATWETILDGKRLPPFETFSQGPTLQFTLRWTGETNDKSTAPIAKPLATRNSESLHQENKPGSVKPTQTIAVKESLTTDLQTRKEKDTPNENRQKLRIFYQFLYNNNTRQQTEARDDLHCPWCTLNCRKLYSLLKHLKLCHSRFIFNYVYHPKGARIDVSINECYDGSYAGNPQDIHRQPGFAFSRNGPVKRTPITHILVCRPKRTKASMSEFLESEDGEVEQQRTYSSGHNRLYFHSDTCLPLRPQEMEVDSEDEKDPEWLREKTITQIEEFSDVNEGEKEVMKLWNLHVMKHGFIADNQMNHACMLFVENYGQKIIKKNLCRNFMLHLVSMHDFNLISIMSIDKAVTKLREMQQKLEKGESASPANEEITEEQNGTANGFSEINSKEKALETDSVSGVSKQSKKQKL
Test [5] deals with cAMP-dependent protein kinase catalytic subunit beta (Homo sapiens) (UniProt P22694). In words: Selectivity interaction (KinomeScan (DiscoverX)) EUB0000045b PRKACB.
The target in test [6] is Tyrosine-protein kinase BTK (Homo sapiens, UniProt Q06187). To be noted: at 1 µM.
Sequence of Tyrosine-protein kinase BTK (Q06187 whole entry): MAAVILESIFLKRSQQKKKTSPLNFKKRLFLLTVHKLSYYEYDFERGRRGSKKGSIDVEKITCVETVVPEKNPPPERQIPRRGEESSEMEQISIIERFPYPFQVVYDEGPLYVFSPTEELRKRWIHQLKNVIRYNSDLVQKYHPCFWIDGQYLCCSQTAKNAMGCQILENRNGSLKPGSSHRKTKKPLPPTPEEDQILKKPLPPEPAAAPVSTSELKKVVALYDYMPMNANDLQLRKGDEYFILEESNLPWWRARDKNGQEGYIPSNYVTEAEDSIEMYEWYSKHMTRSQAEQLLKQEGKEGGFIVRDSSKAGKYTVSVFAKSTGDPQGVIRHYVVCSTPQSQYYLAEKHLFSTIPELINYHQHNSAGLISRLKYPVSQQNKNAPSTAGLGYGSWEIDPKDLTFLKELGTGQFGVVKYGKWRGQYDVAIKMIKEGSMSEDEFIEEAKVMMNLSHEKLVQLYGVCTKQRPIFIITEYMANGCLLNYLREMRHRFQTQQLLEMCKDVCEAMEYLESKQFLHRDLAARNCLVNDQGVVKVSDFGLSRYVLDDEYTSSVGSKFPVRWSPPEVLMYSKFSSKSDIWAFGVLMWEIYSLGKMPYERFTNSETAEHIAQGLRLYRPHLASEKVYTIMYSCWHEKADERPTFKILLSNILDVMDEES
The target of test [7] is T2, Ephrin type-A receptor 8 (Homo sapiens) (UniProt P29322).
T2 sequence (whole entry): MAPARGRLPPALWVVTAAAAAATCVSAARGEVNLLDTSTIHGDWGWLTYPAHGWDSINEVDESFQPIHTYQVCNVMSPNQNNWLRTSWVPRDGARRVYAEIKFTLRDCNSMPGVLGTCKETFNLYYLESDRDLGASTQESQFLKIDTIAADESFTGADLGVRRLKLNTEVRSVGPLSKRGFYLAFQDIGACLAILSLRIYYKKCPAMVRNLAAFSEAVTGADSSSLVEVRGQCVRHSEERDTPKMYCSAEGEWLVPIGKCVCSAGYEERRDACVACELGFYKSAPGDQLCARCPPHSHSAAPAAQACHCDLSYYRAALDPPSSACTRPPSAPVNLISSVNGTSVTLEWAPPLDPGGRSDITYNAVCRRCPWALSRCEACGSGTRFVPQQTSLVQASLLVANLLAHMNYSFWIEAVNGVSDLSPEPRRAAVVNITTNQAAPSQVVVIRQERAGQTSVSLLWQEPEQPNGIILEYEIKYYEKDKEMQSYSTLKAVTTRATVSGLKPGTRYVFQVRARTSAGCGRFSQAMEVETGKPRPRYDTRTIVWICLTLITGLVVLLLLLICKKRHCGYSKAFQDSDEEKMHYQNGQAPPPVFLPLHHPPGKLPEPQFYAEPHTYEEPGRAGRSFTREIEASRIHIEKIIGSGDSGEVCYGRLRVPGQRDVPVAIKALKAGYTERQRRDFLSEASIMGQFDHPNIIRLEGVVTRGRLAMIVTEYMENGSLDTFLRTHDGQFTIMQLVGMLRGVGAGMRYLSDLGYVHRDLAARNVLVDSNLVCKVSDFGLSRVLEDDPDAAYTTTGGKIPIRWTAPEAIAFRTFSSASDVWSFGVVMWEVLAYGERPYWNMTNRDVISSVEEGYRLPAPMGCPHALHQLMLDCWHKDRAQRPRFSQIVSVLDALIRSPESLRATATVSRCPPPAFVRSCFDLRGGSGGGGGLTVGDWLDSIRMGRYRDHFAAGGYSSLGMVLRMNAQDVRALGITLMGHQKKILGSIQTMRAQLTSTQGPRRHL
Put plainly: Selectivity interaction (Kinase panel (Z-LYTE Assay)) EUB0001632a EPHA8. To be noted: at 10 µM.

In test [8] the target is MAP/microtubule affinity-regulating kinase 3 (Homo sapiens) (UniProt P27448). Put plainly: Selectivity interaction (KinomeScan (DiscoverX)) EUB0000607a MARK3. The settings on record: at 10 µM.
Sequence of MAP/microtubule affinity-regulating kinase 3 (Homo sapiens) (P27448 whole entry, looked up): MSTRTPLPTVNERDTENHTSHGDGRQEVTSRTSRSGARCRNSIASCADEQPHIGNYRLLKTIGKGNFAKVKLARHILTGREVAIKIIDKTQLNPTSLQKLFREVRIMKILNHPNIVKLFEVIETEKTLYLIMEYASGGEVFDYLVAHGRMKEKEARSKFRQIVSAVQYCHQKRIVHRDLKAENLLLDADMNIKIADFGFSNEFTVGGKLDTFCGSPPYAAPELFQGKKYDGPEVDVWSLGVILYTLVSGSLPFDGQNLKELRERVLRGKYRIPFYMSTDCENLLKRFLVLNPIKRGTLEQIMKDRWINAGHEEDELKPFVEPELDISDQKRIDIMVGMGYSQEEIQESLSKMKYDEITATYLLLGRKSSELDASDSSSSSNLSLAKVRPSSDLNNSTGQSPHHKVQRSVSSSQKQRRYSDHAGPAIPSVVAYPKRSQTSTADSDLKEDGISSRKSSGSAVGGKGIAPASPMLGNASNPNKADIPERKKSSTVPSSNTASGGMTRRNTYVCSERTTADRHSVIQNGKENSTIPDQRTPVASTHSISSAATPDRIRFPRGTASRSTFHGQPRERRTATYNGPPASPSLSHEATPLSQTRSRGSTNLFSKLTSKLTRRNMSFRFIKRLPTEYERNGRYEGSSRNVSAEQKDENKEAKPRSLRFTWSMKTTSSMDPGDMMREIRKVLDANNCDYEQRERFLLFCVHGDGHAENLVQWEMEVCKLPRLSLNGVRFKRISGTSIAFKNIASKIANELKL
Test [9] deals with Serine/threonine-protein kinase N2 (Homo sapiens, UniProt Q16513). In words: Selectivity interaction (ActivX KiNativ screen (kinase selectivity in THP-1 cell lysates)) EUB0000639a PKN2. It counts as subcellular. The settings on record: lysate.
Sequence of Serine/threonine-protein kinase N2 (Q16513 whole entry, looked up): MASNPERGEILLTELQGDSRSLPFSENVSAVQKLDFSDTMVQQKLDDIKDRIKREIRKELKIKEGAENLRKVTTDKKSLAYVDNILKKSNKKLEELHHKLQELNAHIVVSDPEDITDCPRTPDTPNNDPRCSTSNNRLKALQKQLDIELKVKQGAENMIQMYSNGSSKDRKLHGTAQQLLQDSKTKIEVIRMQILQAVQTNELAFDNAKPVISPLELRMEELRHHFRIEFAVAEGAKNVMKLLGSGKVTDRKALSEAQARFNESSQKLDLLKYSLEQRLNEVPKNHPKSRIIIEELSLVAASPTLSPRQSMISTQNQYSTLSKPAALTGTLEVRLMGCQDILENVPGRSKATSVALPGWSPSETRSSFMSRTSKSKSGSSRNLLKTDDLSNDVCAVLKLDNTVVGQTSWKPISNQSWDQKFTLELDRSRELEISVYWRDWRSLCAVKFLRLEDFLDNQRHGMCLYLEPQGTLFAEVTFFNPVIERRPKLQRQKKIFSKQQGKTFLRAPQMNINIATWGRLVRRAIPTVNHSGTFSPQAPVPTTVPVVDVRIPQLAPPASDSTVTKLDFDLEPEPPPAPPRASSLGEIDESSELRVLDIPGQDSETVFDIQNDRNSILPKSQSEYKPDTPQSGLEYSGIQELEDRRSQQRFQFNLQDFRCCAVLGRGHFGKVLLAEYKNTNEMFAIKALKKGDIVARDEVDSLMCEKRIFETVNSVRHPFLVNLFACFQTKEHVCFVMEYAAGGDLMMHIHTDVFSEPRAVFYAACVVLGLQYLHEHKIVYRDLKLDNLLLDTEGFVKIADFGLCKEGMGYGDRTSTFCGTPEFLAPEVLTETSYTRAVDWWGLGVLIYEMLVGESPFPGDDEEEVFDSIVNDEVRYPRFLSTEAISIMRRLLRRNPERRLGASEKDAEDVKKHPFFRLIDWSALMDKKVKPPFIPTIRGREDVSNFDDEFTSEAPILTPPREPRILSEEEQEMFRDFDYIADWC

Sequence of High affinity nerve growth factor receptor (P04629 33-796 limits assumed): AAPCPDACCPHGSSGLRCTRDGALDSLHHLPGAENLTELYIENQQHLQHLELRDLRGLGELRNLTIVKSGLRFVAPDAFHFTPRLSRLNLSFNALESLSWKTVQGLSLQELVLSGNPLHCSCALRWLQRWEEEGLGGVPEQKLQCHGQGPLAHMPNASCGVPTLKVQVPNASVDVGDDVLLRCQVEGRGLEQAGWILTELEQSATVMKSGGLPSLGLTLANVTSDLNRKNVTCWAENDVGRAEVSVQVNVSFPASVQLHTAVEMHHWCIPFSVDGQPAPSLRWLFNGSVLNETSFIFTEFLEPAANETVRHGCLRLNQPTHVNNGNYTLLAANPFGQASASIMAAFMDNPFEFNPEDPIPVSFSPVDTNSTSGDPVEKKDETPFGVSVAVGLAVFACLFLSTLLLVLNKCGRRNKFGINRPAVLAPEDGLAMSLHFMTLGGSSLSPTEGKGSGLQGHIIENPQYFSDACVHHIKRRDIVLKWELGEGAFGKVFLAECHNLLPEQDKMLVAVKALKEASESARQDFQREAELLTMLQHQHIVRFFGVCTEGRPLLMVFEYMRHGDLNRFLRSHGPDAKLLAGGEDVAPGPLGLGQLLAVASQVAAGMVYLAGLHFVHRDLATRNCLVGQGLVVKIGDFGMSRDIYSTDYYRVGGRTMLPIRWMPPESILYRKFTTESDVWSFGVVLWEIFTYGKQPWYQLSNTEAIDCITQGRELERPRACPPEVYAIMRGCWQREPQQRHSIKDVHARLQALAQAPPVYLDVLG

`Cc1cc([C@@H](C)Nc2ccccc2C(=O)O)c2nc(N3CCOCC3)cc(=O)n2c1` [AZD-6482]: the % of control in test [1] was 88%. For the compound `CN(C)C/C=C/C(=O)Nc1ccc(C(=O)N2CCCC(Nc3ncc(Cl)c(-c4c[nH]c5ccccc45)n3)C2)cc1` (stereo not given), the % of control in test [2] amounted to 100%. With `CN(C)CCOc1ccc(-c2nc(-c3ccncc3)c(-c3ccc4c(c3)CC/C4=N\O)[nH]2)cc1`, the % of control in test [3] stood at 77%. Take `Cc1cc(C)cc([C@@H]2c3cc(C)ccc3NC(=O)CN2C(=O)c2ccc(Br)s2)c1`: the % of activity in [4] (at 1 µM) and in test [4] (at 10 µM) was 101% in each case. Turning to `C=CC(=O)Nc1cc(-n2c(=O)ccc3cnc4ccc(-c5ccc(NS(C)(=O)=O)cc5)cc4c32)ccc1C`, the % of control in test [5] (at 1 µM) is 79%; in test [5] (at 10 µM), 100%. As for `Cc1cc(-c2ccnc(Nc3cnn(C)c3)n2)ccc1CNC(=O)N1CC(OC(C)C)C1`, the % of control in test [6] is 2.9%. Turning to `Cn1cc(-n2cnc3c(NCc4nc5cc(Cl)c(Cl)cc5[nH]4)nc(N4CCOCC4)nc32)cn1`, in test [7], the % of control was -0.692%.

Regarding `CNC(=O)Nc1ccc(-c2nc(N3CC4CCC(C3)O4)c3cnn(C4CCC5(CC4)OCCO5)c3n2)cc1`, in [8], the % of control amounted to 92%. On to `CC[C@@H]1[C@H](F)C(=O)N[C@@H]1COc1nccc2cc(C(N)=O)c(OC)cc12` [ZIMLOVISERTIB], for which the % of inhibition is -6.1% in [9] (at 0.01 µM); -5.7% in [9] (at 0.04 µM); 2.9% in test [9] (at 0.2 µM); 18.9% in [9] (at 1 µM); -9.1% in test [9] (at 5 µM).
